From patent US4885299A, “2-(2,3-dihydro-2-oxo-3-benzofuranyl)acetic acids antihypoxic and nootropic effects having” (ADIR Et Cie, priority 1987, dated 1989)
Structures can show the parent of a compound that is named as a salt.

Test system: Acute hypoxia in mice; survival of the brain
Assay: Acute hypoxia in mice (hypobaric); brain survival time to final respiratory gasp
Format: in vivo, Male CD1 mice (Charles River)
Conditions: 30 minutes before hypoxia, mice; for change in vivo at 300 mg/kg: 300 mg/kg I.P.; for change in vivo at 10 mg/kg: 10 mg/kg I.P.; for change in vivo at 30 mg/kg: 30 mg/kg I.P.
Experimental: The compounds of the present invention were tested in respect of their capacity to prolong the survival of cerebral tissue during acute hypoxia in mice, or to maintain the level of tissue energy-rich compounds in rats subjected to a fall in the oxygen supply [Pharmacology of Cerebral Ischemia, p. 334-339 (1968) Elsevier Science Publishers B.V., J. Krieglstein ed.]. […] Forsch. Drug. Res. (1986), 36 II No. 9, p. 1314-1320].
The survival of the brain is assessed by measuring the time at which the final respiratory gasp is observed.
The survival time of a treated batch is compared with that of a control batch receiving only the solvent.
The percentage increase in the survival time after the animals are treated with the compounds of the invention is shown in Table II.

[1] = Mus musculus, ip, 100 mg/kg I.P., read-out: Percentage increase in the survival time
[2] = Mus musculus, ip, read-out: Percentage increase in the survival time

| Compound | change in vivo at 100 mg/kg [1] | change in vivo at 30 mg/kg [2] | also measured |
| --- | --- | --- | --- |
| O=C(O)CC1(c2ccccc2)C(=O)Oc2ccc(F)cc21 (stereo not shown) [Example 2, 2-(2,3-Dihydro-5-fluoro-2-oxo-3-phenyl-3-benzofuranyl)acetic acid] | 38% |  |  |
| O=C(O)CC1(c2ccccc2)C(=O)Oc2ccccc21 (stereo not shown) [Example 3, 2-(2,3-Dihydro-2-oxo-3-phenyl-3-benzofuranyl) acetic acid] | 29% |  |  |
| O=C(O)CC1(c2ccc(Cl)cc2)C(=O)Oc2ccccc21 (stereo not shown) [Example 4, 2-[3-(4-Chlorophenyl)-2,3-dihydro-2-oxo-3-benzofuranyl)acetic acid] | 17% |  |  |
| O=C(O)CC1(c2ccccc2)C(=O)Oc2ccc(O)cc21 (stereo not shown) [Example 5, 2-(2,3-Dihydro-5-hydroxy-2-oxo-3-phenyl-3-benzofuranyl)acetic acid] | 69% |  |  |
| COc1ccc2c(c1)C(CC(=O)O)(c1ccccc1)C(=O)O2 (stereo not shown) [Example 6, 2-(2,3-Dihydro-5-methoxy-2-oxo-3-phenyl-3-benzofuranyl)acetic acid] | 41% |  |  |
| O=C(CC1(c2ccccc2)C(=O)Oc2ccc(O)cc21)OCc1ccccc1 (stereo not shown) [Example 7] | 14% |  | change in vivo at 300 mg/kg [2]: 156% |
| CCOC(=O)CC1(c2ccccc2)C(=O)Oc2ccc(Cl)cc21 (stereo not shown) [Example 8, 2-(5-Chloro-2,3-dihydro-2-oxo-3-phenyl-3-benzofuranyl)acetic acid ethyl ester] | 52% |  |  |
| CCN(CC)C(=O)CC1(c2ccccc2)C(=O)Oc2ccc(Cl)cc21 (stereo not shown) [Example 10, N,N-Diethyl-2-(5-chloro-2,3-dihydro-2-oxo-3-phenyl-3-benzofuranyl)acetamide] | 97% |  |  |
| CC(C)C[C@@H](C(=O)O)N(C)C(=O)CC1(c2ccccc2)C(=O)Oc2ccc(Cl)cc21 (stereo partly shown) [Example 11, N-Methyl-N-[2-(5-chloro-2,3-dihydro-2-oxo-3-phenyl-3-benzofuranyl)acetyl]leucine] | 159% |  |  |
| CCN(CC)CCN(C)C(=O)CC1(c2ccccc2)C(=O)Oc2ccc(Cl)cc21 (stereo not shown) [Example 12, N-Methyl-N-diethylaminoethyl-2-(5-chloro-2,3-dihydro-2-oxo-3-phenyl-3-benzofuranyl)acetamide hydrochloride] | > 180% | 84% | change in vivo at 3 mg/kg (Mus musculus, ip, 3 mg/kg I.P., read-out: Percentage increase in the survival time): 32%; change in vivo at 10 mg/kg [2]: 41% |
| O=C(O)[C@@H]1CCCN1C(=O)CC1(c2ccccc2)C(=O)Oc2ccc(Cl)cc21 (stereo partly shown) [Example 13, N-[2-(5-chloro-2,3-dihydro-2-oxo-3-phenyl-3-benzofuranyl)acetyl]proline] | 8% |  |  |
| O=C(CC1(c2ccccc2)C(=O)Oc2ccc(Cl)cc21)N1CCOCC1 (stereo not shown) [Example 14, 2-(5-Chloro-2,3-dihydro-2-oxo-3-phenyl-3-benzofuranyl)-1-morpholino-1-oxoethane] | 88% |  |  |
| O=C(CC1(c2ccccc2)C(=O)Oc2ccc(Cl)cc21)N1CCN(CCO)CC1 (stereo not shown) [Example 15, 2-(5-Chloro-2,3-dihydro-2-oxo-3-phenyl-3-benzofuranyl)-1-[4-(2-hydroxyethyl)piperazinyl]-1-oxoethane hydrochloride] | > 130% | 41% | change in vivo at 10 mg/kg [2]: 34%; change in vivo at 200 mg/kg (Mus musculus, ip, 200 mg/kg I.P., read-out: Percentage increase in the survival time): 203% |
| O=C(CC1(c2ccccc2)C(=O)Oc2ccc(Cl)cc21)N1CCN(Cc2ccccc2)CC1 (stereo not shown) [Example 17, 2-(5-Chloro-2,3-dihydro-2-oxo-3-phenyl-3-benzofuranyl)-1-(4-benzylpiperazinyl)-1-oxoethane] | 66% | 40% |  |
| O=C(CC1(c2ccccc2)C(=O)Oc2ccc(Cl)cc21)N1CCN(c2cccc(C(F)(F)F)c2)CC1 (stereo not shown) [Example 18, 2-(5-Chloro-2,3-dihydro-2-oxo-3-phenyl-3-benzofuranyl)-1-[4-(3-trifluoromethylphenyl)piperazinyl)-1-oxoethane hydrochloride] | 88% | 53% | change in vivo at 10 mg/kg [2]: 41%; change in vivo at 300 mg/kg [2]: 103% |
| Cc1cccc(N2CCN(C(=O)CC3(c4ccccc4)C(=O)Oc4ccc(Cl)cc43)CC2)c1 (stereo not shown) [Example 19, 2-(5-Chloro-2,3-dihydro-2-oxo-3-phenyl-3-benzofuranyl)-1-[4-(3-methylphenyl)piperazinyl]-1oxoethane hydrochloride] | 76% |  |  |
| CN(CC(=O)O)C(=O)CC1(c2ccccc2)C(=O)Oc2ccccc21 (stereo not shown) [Example 21, N-Methyl-N-[2-(2,3-dihydro-2-oxo-3-phenyl-3-benzofuranyl)acetyl]glycine] | 14% |  |  |
| O=C(CC1(c2ccccc2)C(=O)Oc2ccccc21)N1CCN(Cc2ccc3c(c2)OCO3)CC1 (stereo not shown) [Example 22, 2-(2,3-Dihydro-2-oxo-3-phenyl-3-benzofuranyl)-1-[4-(3,4-methylenedioxybenzyl)piperazinyl]-1-oxoethane hydrochloride] | 126% | 42% | Percentage increase in the survival time (100 mg/kg I.P., listed as Ex. 22, hydrochloride): +126%; change in vivo at 10 mg/kg [2]: 11% |
| Cc1cccc(N2CCN(C(=O)CC3C(=O)Oc4ccc(Cl)cc43)CC2)c1 (stereo not shown) [Example 26, 2-(5-Chloro-2,3-dihydro-2-oxo-3-benzofuranyl)-1-[4-(3-methylphenyl)piperazinyl]-1-oxoethane hydrochloride] | > 130% | 53% | change in vivo at 10 mg/kg [2]: 52%; change in vivo at 300 mg/kg [2]: 190% |
| O=C(CC1(c2ccccc2)C(=O)Oc2ccc(Cl)cc21)N1CCN(c2cc(C(F)(F)F)ccn2)CC1 (stereo not shown) [Example 27, 2-(5-Chloro-2,3-dihydro-2-oxo-3-phenyl-3-benzofuranyl)-1-[4-(4-trifluoromethyl-2-pyridyl)piperazinyl]-1-oxoethane] | 76% | 59% | change in vivo at 10 mg/kg [2]: 36% |
| CN(C(=O)CC1(c2ccccc2)C(=O)Oc2ccc(Cl)cc21)[C@@H](Cc1ccccc1)C(=O)O (stereo partly shown) [Example 28, N-[2-(5-Chloro-2,3-dihydro-2-oxo-3-phenyl-3-benzofuranyl)acetyl]-N-methylphenylalanine] | 90% |  |  |
| O=C(O)CN1CCN(C(=O)CC2(c3ccccc3)C(=O)Oc3ccc(Cl)cc32)CC1 (stereo not shown) [Example 29, 2-(5-Chloro-2,3-dihydro-2-oxo-3-phenyl-3-benzofuranyl)-1-(4-carboxymethylpiperazinyl)-1-oxoethane hydrochloride] | 66% | 32% |  |
| COc1cccc(C2CCCN(C(=O)CC3(c4ccccc4)C(=O)Oc4ccc(Cl)cc43)C2)c1 (stereo not shown) [Example 30, 2-(5-Chloro-2,3-dihydro-2-oxo-3-phenyl-3-benzofuranyl)-1-[3-(3-methoxyphenyl)piperidyl]-1-oxoethane] | 103% | 36% | change in vivo at 10 mg/kg [2]: 32% |
| CCN1CCCC1CN(C)C(=O)CC1(c2ccccc2)C(=O)Oc2ccc(Cl)cc21 (stereo not shown) [Example 32, 2-(5-Chloro-2-oxo-3-phenyl-3-benzofuranyl)-1-[(1-ethylpyrrolidinyl)methyl]methylamino-1-oxoethanehydrochloride] |  | 26% |  |
